According to US20230141863A1, “Small Molecule Inhibitors Targeting the Sodium Channel Tamoxifen Receptor and Uses Thereof” (Northwestern University, priority 2021, published 2023):

Legend:
human Nav1.7 = target: T1, human Nav1.7 (Homo sapiens, UniProt Q15858); experiment: Voltage clamp of heterologously expressed Nav1.7; assay type: cell-based; conditions: Hill fit, printed for ND-Tam and 4OH-Tam together
T1 construct: expressed in transfected cells; host or cells: HEK cells, transient transfection with lipofectamine
T1 sequence (Q15858 whole entry): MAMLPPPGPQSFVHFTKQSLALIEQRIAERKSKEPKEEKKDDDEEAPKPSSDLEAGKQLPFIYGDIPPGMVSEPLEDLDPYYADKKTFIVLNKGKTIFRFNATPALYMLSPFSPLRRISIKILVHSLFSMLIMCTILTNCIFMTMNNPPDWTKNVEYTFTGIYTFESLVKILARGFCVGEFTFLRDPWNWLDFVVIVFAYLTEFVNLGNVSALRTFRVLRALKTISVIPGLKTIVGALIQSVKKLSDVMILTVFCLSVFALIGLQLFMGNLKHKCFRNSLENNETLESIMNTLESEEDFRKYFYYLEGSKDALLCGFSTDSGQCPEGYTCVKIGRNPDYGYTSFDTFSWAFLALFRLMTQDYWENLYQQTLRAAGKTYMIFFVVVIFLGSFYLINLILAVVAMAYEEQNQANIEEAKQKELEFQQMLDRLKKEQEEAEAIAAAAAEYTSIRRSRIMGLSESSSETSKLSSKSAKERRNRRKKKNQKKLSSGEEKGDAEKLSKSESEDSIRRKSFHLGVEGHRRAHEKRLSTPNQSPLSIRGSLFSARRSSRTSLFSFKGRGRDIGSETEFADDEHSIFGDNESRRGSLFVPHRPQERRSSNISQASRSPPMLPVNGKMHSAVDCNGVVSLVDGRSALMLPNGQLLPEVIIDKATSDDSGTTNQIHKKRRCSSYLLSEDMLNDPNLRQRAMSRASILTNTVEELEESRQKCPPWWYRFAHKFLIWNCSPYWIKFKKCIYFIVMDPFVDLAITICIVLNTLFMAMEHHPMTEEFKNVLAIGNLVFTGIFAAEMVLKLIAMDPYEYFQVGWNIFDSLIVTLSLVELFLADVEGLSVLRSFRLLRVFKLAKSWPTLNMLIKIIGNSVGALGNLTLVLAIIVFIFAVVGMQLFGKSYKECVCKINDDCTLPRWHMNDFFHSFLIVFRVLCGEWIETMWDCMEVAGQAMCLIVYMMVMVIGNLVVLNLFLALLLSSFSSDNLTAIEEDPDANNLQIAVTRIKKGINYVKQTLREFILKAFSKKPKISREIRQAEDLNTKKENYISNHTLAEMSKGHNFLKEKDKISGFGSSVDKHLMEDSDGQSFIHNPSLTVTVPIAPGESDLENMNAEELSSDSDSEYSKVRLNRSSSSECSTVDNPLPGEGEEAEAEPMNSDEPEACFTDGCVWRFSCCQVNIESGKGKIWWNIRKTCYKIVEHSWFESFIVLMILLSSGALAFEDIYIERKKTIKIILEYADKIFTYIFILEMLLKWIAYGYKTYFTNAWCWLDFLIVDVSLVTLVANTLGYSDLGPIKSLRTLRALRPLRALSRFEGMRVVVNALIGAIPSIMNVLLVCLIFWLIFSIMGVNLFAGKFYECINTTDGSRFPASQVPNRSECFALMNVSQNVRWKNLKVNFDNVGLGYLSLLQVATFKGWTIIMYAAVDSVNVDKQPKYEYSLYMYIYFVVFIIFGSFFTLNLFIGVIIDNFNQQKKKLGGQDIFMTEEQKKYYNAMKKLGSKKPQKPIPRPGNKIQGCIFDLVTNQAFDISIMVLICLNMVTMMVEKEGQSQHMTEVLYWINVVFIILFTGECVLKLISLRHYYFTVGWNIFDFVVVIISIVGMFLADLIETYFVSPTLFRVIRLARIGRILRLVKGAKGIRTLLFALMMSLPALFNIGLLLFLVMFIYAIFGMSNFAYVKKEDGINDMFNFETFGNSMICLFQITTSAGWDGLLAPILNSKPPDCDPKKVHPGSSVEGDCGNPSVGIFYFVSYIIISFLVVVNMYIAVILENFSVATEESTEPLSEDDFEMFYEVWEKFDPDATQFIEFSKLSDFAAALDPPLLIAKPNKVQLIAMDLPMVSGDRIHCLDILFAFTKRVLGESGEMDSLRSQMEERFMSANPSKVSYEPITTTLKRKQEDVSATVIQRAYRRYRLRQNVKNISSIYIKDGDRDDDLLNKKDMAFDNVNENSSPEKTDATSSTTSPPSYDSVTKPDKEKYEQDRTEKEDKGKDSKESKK
Procedure: While no clear drug-receptor interactions were determined within Siteout, the S6 E220 side chains formed hydrogen bond interactions with the ether and amine moieties of the ND-Tam molecules found at Sitein. […] After structural alignment of the crystalized NavMs-Tam complex with the cryo EM Nav1.7+b1+b2 channel coordinates, the S6 side chain hydroxyl in DII (S969) and the carboxyl side chains in DIII (E1458) and DIV (D1761) observed in the human channel were nearly superimposable with E220 of the prokaryotic Nav subunits. In addition, the distances from the drug ether and amines were within acceptable distances (2.8-3.1 Å) for hydrogen bond formation for all three site chains (FIG. 2B). […]
Plasmids encoding the human version of channels Nav1.1, 1.6, and 1.7 were co-transfected with TRES GFP into HEK cell lines for whole-cell voltage clamp studies (American Type Culture Collection). […] Plasma membrane currents were recorded using borosilicate glass electrodes polished to resistances of […]. Sodium currents conducted by heterologously expressed Navs were recorded using the following solutions (in mM). […] Endogenous DRG sodium currents were recorded using an intracellular solution consisting of 70 CsCl, 70 CsF, 2 EGTA, 5 HEPES, and 5 NaCl; the pH was adjusted to 7.4 with CsOH. […]

[1] = test system: T2, endogenous voltage-gated sodium channels expressed in murine DRG neurons; experiment: Whole cell voltage clamp of endogenous sodium currents (INa) in cultured DRG sensory neurons; assay type: cell-based, mouse; conditions: for voltage dependence of INa inhibition (in words): −60 mV versus −100 mV holding potential
T2 construct: other: waiting for 5 minutes after removal; ND-Tam potency against DRG INa (IC50); other: DRG neurons, −60 mV holding potential; other: 3 μM ND-Tam treatment; other: DR
Procedure: FIG. 1. Tamoxifen metabolites inhibit endogenous voltage-gated sodium channels expressed in murine DRG neurons. A) DIC and fluorescence images of voltage clamped DRG neuron isolated and cultured from an Nav1.8-tomato mouse. Continuity with the patched neuron is indicted by the GFP (Alexa Fluor 488 dye 1 nM) loaded into the glass patch electrode. B) Top, exemplar sodium currents (INa) recorded in control saline and two concentrations of N-desmethyl tamoxifen (ND-Tam) from a voltage-clamped DRG neuron. INa was activated by 0.2 Hz train of 50 ms depolarizations to −10 mV from −100 mV holding potential. Bottom, time course of peak INa inhibition during control conditions and after 5 minutes of extracellular ND-Tam treatment. C) Resulting drug concentration-INa inhibition relationship for ND-Tam fit to the Hill equation. Open symbols represent responses from individual cells and filled symbols represent average response per concentration. Error is equal to S.E.M. (n=11) D) A comparison of the percent INa recovery after 3-10 μM ND-Tam or 1 mM carbamazepine (CBZ) inhibition. INa recovery was assessed after 5 minutes in control saline post drug exposure. Fewer INa recovered from ND-Tam exposure compared to CBZ exposure, 14.3±5.4% and 47.2±9.6%, respectively, and was statistically significant (P=0.03). Error is equal to S.E.M. and the number of cells tested per treatment group is indicated within the parentheses.
Previously, a unique receptor site for tamoxifen analogues within the prokaryotic sodium channel isolated form Magnetococcus marinus (NavMs)^36 (Sula et al) was crystallographically identified. Because drug occupancy of this receptor caused long lasting inhibition of the NavMs INa, the inventors wondered if these properties would translate into effects against sensory neuron Na s which transmit pain signals. Accordingly, =the potency of ND-Tam and 4OH-Tam was tested against endogenously expressed Na s in cultured DRG sensory neurons isolated from Nav1.8-tdTomato mice by conducting whole cell voltage clamp recordings (FIG. 1A, B). Sodium currents were activated by a 0.2 Hz train of −10 mV depolarizations from a holding potential of −100 mV. The externally applied drug effect was determined after three to five minutes of application of each drug concentration (FIG. 1B). […] As discussed in the introduction, total DRG INa is conducted by the Nav1.1, Nav1.6, Nav1.7, Nav1.8 and Nav1.9 subtypes. To determine if there is any specificity in the potency of tamoxifen analogues against Nav subtypes, human orthologues were heterologously expressed in cell lines (HEK and CHO co-expressing hb1 subunits), and conducted voltage-clamp experiments, as previously performed in the DRG neurons.
Dorsal root ganglia were isolated using a modified version of the previously described protocol (PMID: 26864470). All animal procedures were approved by the Institutional Animal Care and Use Committee at the Feinberg Medical School, Northwestern University. The spinal columns of 4-6-week-old […] or Nav1.8-Tomato mice (Nav1.8-Td) were removed and DRG neurons from all spinal levels were isolated for primary culture (PMID: 33827672, PMID: 31351964). The collected DRGs, containing both neuronal and non-neuronal cells, were acutely dissociated in DMEM with collagenase IV (2 mg/mL) for 30 minutes, followed by papain (25 U/mL) for 30 minutes. The cells were then triturated, filtered through a 40 μm cell strainer to remove non-dissociated cells, and washed with DMEM. The DRGs were resuspended in 70 μL of pre-warmed growth medium (DMEM F12+Glutamax supplemented with 0.5% FBS, 0.5% penicillin/streptomycin, 1% N-2 supplement, and β-NGF ([…]) added on the day of use) and plated on poly-l-lysine (10 mg/mL) and laminin (25 μg/mL) prepared coverslips. The DRGs were incubated at 37° C. for 2-4 hours before more growth medium was added to the wells. […]

[2] = test system: mice with knee hyperalgesia post DMM surgery; experiment: In vivo osteoarthritis pain model (DMM), knee hyperalgesia after intra-articular injection; parameters: species or system mouse; conditions: 50 μM intra-articular, vehicle 0.1% DMSO; for knee hyperalgesia versus vehicle, direct comparison study (in words): 30 minutes after injection; for knee withdrawal threshold versus vehicle control (in words): through 3 hours after injection
[3] = test system: mice with knee hyperalgesia post DMM surgery; conditions: 20 mg/kg, ~0.85M, PMID: 29563338; cited from earlier work

Row | SMILES | slope of concentration-dependence (human Nav1.7) | IC50 ([1]; DRG neurons, −100 mV holding potential, 0.2 Hz train of −10 mV depolarizations, read-out: half maximal potency of INa inhibition (IC50)) [µM] | inhibition of sodium currents recorded from DRG neurons (in words) ([1]; tamoxifen analogs and fragments, FIG. 7B) | knee hyperalgesia versus vehicle, direct comparison study (in words) [2] | knee withdrawal threshold versus vehicle control (in words) [2] | voltage dependence of INa inhibition (in words) [1] | knee hyperalgesia after local injection of a relatively high dose (in words) [3]
1 | CC/C(=C(\c1ccc(O)cc1)c1ccc(OCCN(C)C)cc1)c1ccccc1 [4OH-Tam, 4-[(Z)-1-[4-[2-(dimethylamino)ethoxy]phenyl]-2-phenylbut-1-enyl]phenol] | 2.1 | 3.3 | inhibited sodium currents | – | – | – | –
2 | C=C(C)[C@@H]1CCC(C)=C[C@H]1c1c(O)cc(CCCCC)cc1O [CBD, cannabidiol, reference compound] | – | – | – | effectively inhibited knee hyperalgesia | remained elevated compared to vehicle control through 3 hours after injection | followed this trend | –
3 | NC(=O)N1c2ccccc2C=Cc2ccccc21 [CBZ, carbamazepine, reference compound] | – | – | – | – | – | most potent when membranes were held at −60 mV | –
4 | CCN(CC)CC(=O)Nc1c(C)cccc1C [lidocaine, reference compound] | – | – | – | effectively inhibited knee hyperalgesia | remained elevated compared to vehicle control through 3 hours after injection | most potent when membranes were held at −60 mV | able to acutely reverse knee hyperalgesia
